{"source": "patent US20200318165A1", "about": "“Rapid Identification of Microorganisms” (Board of Regents of the Nevada System of Higher Education, …, priority 2015, published 2020)", "key": {"E. coli": {"system": "E. coli", "assay": "Cellular uptake monitored by Transmission Electron Microscopy", "assay_type": "cell-based", "settings": "5 μg/mL, 30 min, FIG. 3A", "method": "(§1) TEM was used to examine whether the retention of C60-pyrrolidine tris acid was localized within the cytosol. Microorganisms were incubated with C60-pyrrolidine tris acid (5 μg/mL) for 30 min. Cells were pelleted by centrifugation at 5,000 rcf (5 min) and washed 5 times with DI H2O. Microorganisms were fixed in 2.5% glutaraldehyde/PBS solution for 30 min. The cells were then pelleted by centrifugation at 5,000 rcf for 5 min. The cell pellet was placed in fresh 2.5% glutaraldehyde/PBS solution at 4° C. overnight. Next, cell pellets were dehydrated by a series of acetone treatments (30% for 15 min, 50% for 15 min, 70% for 15 min, 90% for 15 min and a final treatment at 100% for 30 min, and repeated 3 times), embedded in resin (2:1 mix of propylene oxide:resin for 1 hour, 1:1 mix of propylene oxide:resin for 1 hour, 1:2 mix of propylene oxide: resin for 1 hour, 100% resin overnight, and change to fresh resin 1 h), incubated for 24 h at 37° C., sectioned (60 nm in thickness), and imaged using a Tecnai 12 TEM.\n(§2) To test the hypothesis that functionalized C60-pyrrolidine tris acid internalizes within the cell, microorganisms were imaged with TEM. Both E. coli and B. subtilis were incubated with C60-pyrrolidine tris acid, washed to remove excess compound, sectioned into slices of 60 nm thickness, and then imaged by TEM. […]"}, "B. subtilis": {"system": "B. subtilis", "assay": "Cellular uptake monitored by Transmission Electron Microscopy", "assay_type": "cell-based", "settings": "5 μg/mL, 30 min, FIG. 3B", "method": "as §1, §2"}, "[1]": {"assay": "Fluorescence of the probe itself without bacteria", "assay_type": "physicochemical", "settings": "excitation of 568 nm laser", "excerpt": "Methods were developed to distinguish different species of live bacteria by functionalization of C60 with RNA oligonucleotides hybridized with reporter compounds. The signature RNA oligonucleotides are designed in accordance with the signature information on 16s ribosome RNA, which is unique to each species (Reischl et al., Clin Chem 52, 1985-1987 (2006) and Dresios et al., Journal of molecular biology 345, 681-693 (2005), each of which is hereby incorporated by reference in its entirety). The strategy to recognize a certain bacteria is shown in FIGS. 20A-20C and operates as follows: • (1) C60 molecules were functionalized with signature RNA oligonucleotides containing signature information (e.g., calling card) of a certain species. The Signature RNA oligonucleotides were typically screened through bioinformatics analysis. • (2) A reporter sequence, which is conjugated to a fluorophore, was hybridized with the signature sequence. The fluorophore was silent while hybridized but fluoresced once released. • (3) The C60 complex penetrated the bacteria and released the reporter if the bacteria contained ribosomal signature information that matches the signature RNA oligonucleotide on the C60 complex. The released reporter sequence emitted a fluorescent signal and was detected while free in the cytoplasm. […]"}}, "data": [{"substance": "C60-pyrrolidine tris acid", "values": [{"measurement": "Localization in sectioned cells (TEM)", "setting": "E. coli", "value": "localizes within the cell"}, {"measurement": "Localization in sectioned cells (TEM)", "setting": "B. subtilis", "value": "localizes within the cell"}, {"measurement": "Autofluorescence", "setting": "[1]", "value": "no autofluorescence"}]}]}
